Laboratory results as given in US8163509B2, “Biological markers predictive of anti-cancer response to insulin-like growth factor-1 receptor kinase inhibitors” (The Regents of the University of Colorado, A Body Corporate, priority 2008, dated 2012).
Read-outs that look alike come from different tables or passages of the source.

Key:
Assay in all cases: SRB proliferation assay, 72 h
Assay type in all cases: cell-based, human
SK-CO-1 CRC cell line = conditions: for IC50: Homo sapiens
Experimental: (§1) FIG. 17: Results of cell proliferation assay on the panel of 27 CRC cell lines. Cell proliferation was evaluated by SRB following exposure to OSI-906 for 72 hours. Cells were plated at an optimized density in 96-well plates, incubated overnight at 37° C., and then exposed to a serial dilution of OSI-906. After 72 hours incubation, cells were fixed with trichloroacetic acid and an SRB was performed as described in materials and methods.
(§2) Cell Lines and Culture. […] human colon cancer cell lines, were obtained from American Type Culture Collection (Manassas, Va.). Cells were grown in RPMI medium supplemented with 10% fetal bovine serum, 1% non-essential amino acids, 1% penicillin/streptomycin and were maintained at 37° C. in an incubator under an atmosphere containing 5% CO2. The cells were routinely screened for the presence of mycoplasma (MycoAlert, Cambrex Bio Science, Baltimore, Md.) and were exposed to PQIP when they reached approximately 70% confluence.
(§3) The CRC cell lines were treated with a range of concentrations of PQIP (from 0.05-5 μM) for 72 hours.
(§4) Cell Lines and Culture: Twenty-seven human colon cancer cell lines, were obtained from American Type Culture Collection (Manassas, Va.). The GEO cells were a generous gift from Dr. Fortunato Ciardiello (Cattedra di Oncologia Medica, Dipartimento Medico-Chirurgico di Internistica Clinica e Sperimentale “F Magrassi e A Lanzara,” Seconda Università degli Studi di Napoli, Naples). All cells except GEO were grown in RPMI medium supplemented with 10% fetal bovine serum, 1% non-essential amino acids, 1% penicillin/streptomycin and were maintained at 37° C. in an incubator under an atmosphere containing 5% CO2. GEO cells were grown in DMEM/F12 supplemented with 10% fetal bovine serum, 1% non-essential amino acids, 1% penicillin/streptomycin. The cells were routinely screened for the presence of mycoplasma (MycoAlert, Cambrex Bio Science, Baltimore, Md.) and were exposed to OSI-906 when they reached approximately 70% confluence. OSI-906 was provided by OSI Pharmaceuticals, (Boulder, Colo.) and prepared as a 10 mM stock solution in DMSO.
(§5) Assessment of responsiveness of a panel of CRC cell lines to OSI-906. In order to assess CRC cell lines with differential sensitivity to OSI-906, a panel of 27 CRC cell lines were exposed to increasing concentrations of OSI-906 and proliferation was measured using the SRB assay as described previously (Pitts, T M, et al. Mol Cancer Ther 2009; 8(2):342-9). As depicted in FIG. 17 there was a wide range of sensitivity of the CRC cell lines to OSI-906, the majority of the cell lines failing to reach an IC50 up to 5 μmol/L, but a clear distinction could be made between the cell lines that were sensitive and the cell lines that were resistant.

Colo201 CRC cell line = conditions: for IC50: Homo sapiens, COLO 201
Experimental: as §1, §2, §3, §4, §5

SW620 CRC cell line = conditions: for IC50: Homo sapiens
Experimental: as §1, §2, §3, §4, §5

SW480 CRC cell line = conditions: for IC50: Homo sapiens, SW480
Experimental: as §1, with “Cell” for “FIG. 17: Results of cell proliferation assay on the panel of 27 CRC cell lines. Cell”
as §2
(§6) Multiple clones from the same transfection were pooled and grown under puromycin selection.
as §3
To characterize the potential functionality that the selected genes may play in the sensitivity or resistance to PQIP, resistant and sensitive CRC cell lines were stably transfected with specific shRNA, treated with increasing concentrations of PQIP and proliferation assays performed to observe, if when manipulated, these genes alter responsiveness (i.e. the S or R phenotype). […] Both of these transfected cell lines were assayed for proliferation as described above.
as §4, §6

RKO CRC cell line = conditions: for IC50: Homo sapiens
Experimental: as §1, §2
Cytotoxicity and Combination Effects: HT29, HCT116, RKO, and LS513 CRC cell lines were exposed to 0-10 nM SN-38 (7-Ethyl-10-hydroxy-camptothecin), 0-10 μM Oxaliplatin, or 0-50 μM 5-Fluorouracil (5-FU) for 72 hours. HT29, HCT116, RKO, and LS513 CRC cell lines were exposed to PQIP in combination with SN-38, Oxaliplatin or 5-FU. In all combinations, cells were seeded in 96-well flat bottomed plates and left overnight. PQIP and chemotherapy were both added for 72 hours. The results of the combinations were analyzed by the Chou and Talalay method with Calcusyn (Biosoft, Ferguson, Mo.).
as §3
Combination treatment of PQIP with Chemotherapy in Colon Cancer Cell Lines: IGF1R is overexpressed in CRC and has been associated with resistance to chemotherapy. Therefore, we investigated the effect of PQIP in combination with standard chemotherapy for CRC. Four CRC cell lines including, two PQIP sensitive and two PQIP resistant, were chosen for combinations. HT29 and LS513 CRC cell lines were classified as sensitive, with IC50's around 0.3 μmol/L. HCT116 and RKO CRC cell lines were classified as resistant, with IC50>5 μmol/L. Concentrations were chosen based on single agent proliferation curves for each compound. Cells were exposed to PQIP and chemotherapy (SN38, oxaliplatin, or 5-Fluorouracil) concurrently for 72 h and combinations were assessed using the SRB assay. […] It thus appears that biomarkers which predict tumor cell sensitivity will also indicate which cells will respond in a synergistic manner to an IGF-1R kinase inhibitor (e.g. PQIP) and chemotherapy (i.e. SN38, oxaliplatin, or 5-Fluorouracil). […]

[1] = 72 hours, 0.05-5 μM, read-out: IC50, growth inhibition by PQIP (SRB)
[2] = 72 hours, read-out: IC50, proliferation, OSI-906 (SRB)

Row | IC50 (SW480 CRC cell line; [1]) [µM] | IC50 (SK-CO-1 CRC cell line; [2]) [µM] | IC50 (SK-CO-1 CRC cell line; read-out: S/I/R to OSI-906) [µM] | IC50 (Colo201 CRC cell line; CoLo201, read-out: S/I/R to OSI-906) [µM] | IC50 (Colo201 CRC cell line; Colo201, 72 hours, read-out: IC50, proliferation, OSI-906 (SRB)) [µM] | IC50 (SW620 CRC cell line; SW-620, 72 hours, read-out: IC50, proliferation, OSI-906 (SRB)) [µM] | IC50 (SW620 CRC cell line; SW-620, read-out: S/I/R to OSI-906) [µM] | IC50 (SW480 CRC cell line; read-out: S/I/R to OSI-906) [µM] | IC50 (SW480 CRC cell line; [2]) [µM] | Compound | sensitivity to growth inhibition by PQIP (SRB) (SK-CO-1 CRC cell line; 72 hours, 0.05-5 μM) | sensitivity to growth inhibition by PQIP (SRB) (Colo201 CRC cell line; Colo201, 72 hours, 0.05-5 μM) | sensitivity to growth inhibition by PQIP (SRB) (SW620 CRC cell line; 72 hours, 0.05-5 μM) | shift in sensitivity to PQIP after shRNA knockdown (SW480 CRC cell line; SW480 transfected with MT2A shRNA vs parental or scramble shRNA control) | shift in sensitivity to PQIP after shRNA knockdown (SW480 CRC cell line; SW480 transfected with caldesmon shRNA vs parental or scramble shRNA control) | IC50 (RKO CRC cell line; [1]) [µM] | combination index (CI) values, PQIP and chemotherapy (RKO CRC cell line; PQIP with SN38, oxaliplatin or 5-Fluorouracil concurrently 72 h, nearly all combinations, Chou and Talalay) | shift in sensitivity to OSI-906 after MT2A shRNA knockdown (SW480 CRC cell line; SW480 stably transfected with MT2A shRNA) | IC50 (RKO CRC cell line; [2]) [µM] | IC50 (RKO CRC cell line; read-out: S/I/R to OSI-906) [µM]
1 | > 5 |  |  |  |  |  |  |  |  | CN1CCN([C@H]2C[C@@H](c3nc(-c4ccc5ccc(-c6ccccc6)nc5c4)c4c(N)nccn43)C2)CC1 [PQIP, cis-3-[3-(4-Methyl-piperazin-1-yl)-cyclobutyl]1-(2-phenyl-quinolin-7-yl)-imidazo[1,5-a]pyrazin-8-ylamine] | intermediate sensitivity | intermediate sensitivity | intermediate sensitivity | very modest if any left shift in sensitivity | no left shift in sensitivity | > 5 | 0.6-1.4 |  |  | 
2 |  | > 5 | > 5 | > 5 | > 5 | > 5 | > 5 | > 5 | > 5 | C[C@]1(O)C[C@@H](c2nc(-c3ccc4ccc(-c5ccccc5)nc4c3)c3c(N)nccn32)C1 [OSI-906, cis-3-[8-amino-1-(2-phenyl-quinolin-7-yl)-imidazo[1,5-a]pyrazin-3-yl]-1-methyl-cyclobutanol] |  |  |  |  |  |  |  | did not exhibit the same “left shift” | > 5 | > 5
